{"source": "patent US6924295B2", "about": "“Tetrahydroquinoline derivative compound and drug containing the compound as active ingredient” (Ono Pharmaceutical Co., Ltd., priority 2001, dated 2005)", "key": {"human PPAR γ": {"biological_target": "T1, human PPAR γ (Homo sapiens, UniProt P37231)", "T1 construct": "expressed in transfected cells; host or cells: CV-1 cells", "T1 sequence (P37231 204-505)": "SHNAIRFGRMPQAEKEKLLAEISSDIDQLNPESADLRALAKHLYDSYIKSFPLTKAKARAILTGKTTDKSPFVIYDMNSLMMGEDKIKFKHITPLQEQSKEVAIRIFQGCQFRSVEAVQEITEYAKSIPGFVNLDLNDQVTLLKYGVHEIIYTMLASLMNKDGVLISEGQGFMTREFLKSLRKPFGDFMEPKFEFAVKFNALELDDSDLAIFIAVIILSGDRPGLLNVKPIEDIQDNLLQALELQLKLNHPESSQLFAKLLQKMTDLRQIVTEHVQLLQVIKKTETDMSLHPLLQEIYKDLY", "experiment": "Luciferase assay using human PPAR γ (PPAR γ agonistic activity)", "assay_type": "cell-based", "conditions": "compound 10 μM; luciferase activity of troglitazone (10 μM) defined as 1.0; CV-1 cells with Gal4-human PPAR γ ligand binding domain chimera, 42 hours"}, "human PPAR α": {"biological_target": "T2, human PPAR α (Homo sapiens, UniProt Q07869)", "T2 construct": "expressed in transfected cells; host or cells: CV-1 cells", "T2 sequence (Q07869 167-468)": "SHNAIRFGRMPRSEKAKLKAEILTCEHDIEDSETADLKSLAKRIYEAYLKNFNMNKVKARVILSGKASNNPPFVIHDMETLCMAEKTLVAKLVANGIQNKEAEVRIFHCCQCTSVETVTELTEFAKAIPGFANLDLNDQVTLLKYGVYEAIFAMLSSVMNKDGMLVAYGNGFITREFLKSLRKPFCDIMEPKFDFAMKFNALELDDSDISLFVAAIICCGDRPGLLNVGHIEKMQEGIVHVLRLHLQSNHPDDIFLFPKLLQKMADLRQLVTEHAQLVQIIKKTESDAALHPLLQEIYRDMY", "experiment": "Luciferase assay using human PPAR α (PPAR α agonistic activity)", "assay_type": "cell-based", "conditions": "compound 10 μM; luciferase activity of carbacyclin (10 μM) defined as 1.0; CV-1 cells with Gal4-human PPAR α ligand binding domain chimera, 42 hours"}}, "data": [{"compound": "Cc1ccc(-c2nc(CCOc3cccc4c3CCCN4CCC(=O)O)c(C)o2)cc1", "note": "[Example 2]", "values": [{"measurement": "Relative Activity to a positive control compound (troglitazone = 1)", "setting": "human PPAR γ", "value": 6.7}, {"measurement": "Relative Activity to a positive control compound (carbacyclin = 1)", "setting": "human PPAR α", "value": 0.5}]}]}
